Measurements taken from patent publication US20220235011A1, “PHTHALAZINONE COMPOUNDS AND USE THEREOF” (ST PHARM CO., LTD., priority 2019, published 2022).

Biological target: T1, Sirt6 (Homo sapiens, UniProt Q8N6T7)
T1 construct: purchased CycLex CY-1156V2
Test: Measurement of Sirt6 Activity (CycLex Sirt6 Deacetylase Fluorometric Assay Kit)
Format: biochemical
Settings: compound at 10 μM; fluorescence relative to the group without compound treatment (positive control group)
How it was run: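 Recombinant Sirt6 with fluoro-labelled acetyl-lysine peptide, NAD and lysylendopeptidase developer, compound added from 10× stock in PBS; 1 h at room temperature. Fluorescence read at ex 490/em 530 nm; activation expressed as fluorescence ratio relative to enzyme without compound.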

T1 sequence (Q8N6T7 whole entry): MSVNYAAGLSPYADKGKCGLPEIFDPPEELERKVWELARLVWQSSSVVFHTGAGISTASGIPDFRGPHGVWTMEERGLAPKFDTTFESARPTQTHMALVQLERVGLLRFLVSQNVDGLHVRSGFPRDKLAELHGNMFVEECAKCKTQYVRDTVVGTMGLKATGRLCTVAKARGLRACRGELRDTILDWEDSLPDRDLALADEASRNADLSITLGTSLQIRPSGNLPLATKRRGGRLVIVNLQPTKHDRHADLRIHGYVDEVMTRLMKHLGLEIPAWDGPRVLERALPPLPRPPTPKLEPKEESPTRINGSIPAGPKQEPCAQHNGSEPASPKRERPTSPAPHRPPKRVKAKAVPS

| Sirt6 Activity (% activity, 10 μM) [% activity] | SMILES |
| --- | --- |
| 124 | CC(C)S(=O)(=O)N(C)c1cccc(-c2nn(-c3ccc(F)cc3)c(=O)c3ccccc23)c1 [Example 73, N-(3-(3-(4-Fluorophenyl)-4-oxo-3,4-dihydrophthalazin-1-yl)phenyl)-N-methylpropan-2-sulfonamide] |
| 128 | CN(c1cccc(-c2nn(-c3ccc(F)cc3)c(=O)c3ccccc23)c1)S(=O)(=O)C1CC1 [Example 74, N-(3-(3-(4-Fluorophenyl)-4-oxo-3,4-dihydrophthalazin-1-yl)phenyl)-N-methylcyclopropane Sulfonamide] |
| 139 | CN(C)S(=O)(=O)N(C)c1cccc(-c2nn(-c3ccc(F)cc3)c(=O)c3ccccc23)c1 [Example 75, N-(3-(3-(4-Fluorophenyl)-4-oxo-3,4-dihydrophthalazin-1-yl)phenyl)-N-methyl-dimethyl Sulfamoylamide] |
| 125 | COC(=O)N(C)S(=O)(=O)N(C)c1cccc(-c2nn(-c3ccc(F)cc3)c(=O)c3ccccc23)c1 [Example 76, Methyl (N-(3-(3-(4-fluorophenyl)-4-oxo-3,4-dihydrophthalazin-1-yl)phenyl)-N-methylsulfamoyl) (methyl)carbamate] |
| 194 | O=c1c2ccccc2c(-c2cccc(NS(=O)(=O)C(F)(F)F)c2)nn1-c1ccc(F)cc1 [Example 77, 1,1,1-Trifluoro-N-(3-(3-(4-fluorophenyl)-4-oxo-3,4-dihydrophthalazin-1-yl)phenyl)methanesulfonamide] |
| 122 | CN(c1cccc(-c2nn(-c3ccc(F)cc3)c(=O)c3ccccc23)c1)S(=O)(=O)C(F)(F)F [Example 78, 1,1,1-Trifluoro-N-(3-(3-(4-fluorophenyl)-4-oxo-3,4-dihydrophthalazin-1-yl)phenyl)-N-methylmethane Sulfonamide] |
| 167 | O=C(NOC1CCCCO1)c1cccc(-c2nn(-c3ccc(F)cc3)c(=O)c3ccccc23)c1 (stereo not shown) [Example 79, 3-(3-(4-Fluorophenyl)-4-oxo-3,4-dihydrophthalazin-1-yl)-N-((tetrahydro-2H-pyran-2-yl)oxy)benzamide] |
| 216 | CNS(=O)(=O)N(C)c1cccc(-c2nn(-c3ccc(F)cc3)c(=O)c3ccccc23)c1 [Example 80, N-(3-(3-(4-Fluorophenyl)-4-oxo-3,4-dihydrophthalazin-1-yl)phenyl)-N-methyl-methyl Sulfamoylamide] |
| 115 | O=c1c2ccccc2c(-c2cccc(-c3nnn[nH]3)c2)nn1-c1ccc(F)cc1 [Example 81, 4-(3-(1H-Tetrazol-5-yl)phenyl)-2-(4-fluorophenyl)phthalazin-1(2H)-one] |
| 111 | CCS(=O)(=O)Nc1cncc(-c2nn(-c3ccc(F)cc3)c(=O)c3ccccc23)c1 [Example 82, N-(5-(3-(4-Fluorophenyl)-4-oxo-3,4-dihydrophthalazin-1-yl)pyridin-3-yl)ethanesulfonamide] |
| 162 | O=C(NO)c1cccc(-c2nn(-c3ccc(F)cc3)c(=O)c3ccccc23)c1 [Example 83, 3-(3-(4-Fluorophenyl)-4-oxo-3,4-dihydrophthalazin-1-yl)-N-hydroxybenzamide] |
| 123 | C/[N+]([O-])=C/c1cccc(-c2nn(-c3ccc(-c4ccccc4)cc3)c(=O)c3ccccc23)c1 [Example 84, (Z)-1-(3-(3-([1,1′-Biphenyl]-4-yl)-4-oxo-3,4-dihydrophthalazin-1-yl)phenyl)-N-methylmethanimine Oxide] |
| 118 | CC(C)/[N+]([O-])=C/c1cccc(-c2nn(-c3ccc(-c4ccccc4)cc3)c(=O)c3ccccc23)c1 [Example 85, (Z)-1-(3-(3-([1,1′-Biphenyl]-4-yl)-4-oxo-3,4-dihydrophthalazin-1-yl)phenyl)-N-isopropylmethanimine Oxide] |
| 196 | CNS(=O)(=O)c1cccc(-c2nn(-c3ccc(F)cc3)c(=O)c3ccccc23)c1 [Example 86, 3-(3-(4-Fluorophenyl)-4-oxo-3,4-dihydrophthalazin-1-yl)-N-methylbenzenesulfonamide] |
| 226 | CCNS(=O)(=O)c1cccc(-c2nn(-c3ccc(F)cc3)c(=O)c3ccccc23)c1 [Example 87, N-Ethyl-3-(3-(4-fluorophenyl)-4-oxo-3,4-dihydrophthalazin-1-yl)benzenesulfonamide] |
| 180 | CN(C)S(=O)(=O)c1cccc(-c2nn(-c3ccc(F)cc3)c(=O)c3ccccc23)c1 [Example 88, 3-(3-(4-Fluorophenyl)-4-oxo-3,4-dihydrophthalazin-1-yl)-N,N-dimethylbenzene Sulfonamide] |
| 339 | CS(=O)(=O)c1cccc(-c2nn(-c3ccc(F)cc3F)c(=O)c3ccccc23)c1 [Example 89, 2-(2,4-Difluorophenyl)-4-(3-(methylsulfonyl)phenyl)phthalazin-1 (2H)-one] |
| 283 | CCS(=O)(=O)c1cccc(-c2nn(-c3ccc(F)cc3F)c(=O)c3ccccc23)c1 [Example 90, 2-(2,4-Difluorophenyl)-4-(3-(ethylsulfonyl)phenyl)phthalazin-1(2H)-one] |
| 272 | CNS(=O)(=O)c1cccc(-c2nn(-c3ccc(F)cc3F)c(=O)c3ccccc23)c1 [Example 91, 3-(3-(2,4-Difluorophenyl)-4-oxo-3,4-dihydrophthalazin-1-yl)-N-methylbenzene Sulfonamide] |
| 208 | CCNS(=O)(=O)c1cccc(-c2nn(-c3ccc(F)cc3F)c(=O)c3ccccc23)c1 [Example 92, 3-(3-(2,4-Difluorophenyl)-4-oxo-3,4-dihydrophthalazin-1-yl)-N-ethylbenzene Sulfonamide] |
| 227 | CN(C)S(=O)(=O)c1cccc(-c2nn(-c3ccc(F)cc3F)c(=O)c3ccccc23)c1 [Example 93, 3-(3-(2,4-Difluorophenyl)-4-oxo-3,4-dihydrophthalazin-1-yl)-N,N-dimethylbenzene Sulfonamide] |
| 272 | C/[N+]([O-])=C/c1cccc(-c2nn(-c3ccccc3F)c(=O)c3ccccc23)c1 [Example 94, (Z)-1-(3-(3-(2-Fluorophenyl)-4-oxo-3,4-dihydrophthalazin-1-yl)phenyl)-N-methyl Methanimine Oxide] |
| 133 | CC(C)/[N+]([O-])=C/c1cccc(-c2nn(-c3ccccc3F)c(=O)c3ccccc23)c1 [Example 95, (Z)-1-(3-(3-(2-Fluorophenyl)-4-oxo-3,4-dihydrophthalazin-1-yl)phenyl)-N-isopropyl Methanimine Oxide] |
| 176 | CC(C)(C)/[N+]([O-])=C/c1cccc(-c2nn(-c3ccccc3F)c(=O)c3ccccc23)c1 [Example 96, (Z)—N-tert-Butyl-1-(3-(3-(2-fluorophenyl)-4-oxo-3,4-dihydrophthalazin-1-yl)phenyl)methanimine Oxide] |
| 286 | CS(=O)(=O)c1cccc(-c2nn(-c3ccccc3F)c(=O)c3ccccc23)c1 [Example 97, 2-(2-Fluorophenyl)-4-(3-(methylsulfonyl)phenyl)phthalazin-1(2H)-one] |
